The values that follow come from ChEMBL document CHEMBL4145653, “Biosynthetic Baeyer-Villiger Chemistry Enables Access to Two Anthracene Scaffolds from a Single Gene Cluster in Deep-Sea-Derived Streptomyces olivaceus SCSIO T05” (J Nat Prod, 2018).

Assay [1] addresses T1, Alpha-2-macroglobulin (Homo sapiens, UniProt P01023).
T1 sequence (P01023 whole entry): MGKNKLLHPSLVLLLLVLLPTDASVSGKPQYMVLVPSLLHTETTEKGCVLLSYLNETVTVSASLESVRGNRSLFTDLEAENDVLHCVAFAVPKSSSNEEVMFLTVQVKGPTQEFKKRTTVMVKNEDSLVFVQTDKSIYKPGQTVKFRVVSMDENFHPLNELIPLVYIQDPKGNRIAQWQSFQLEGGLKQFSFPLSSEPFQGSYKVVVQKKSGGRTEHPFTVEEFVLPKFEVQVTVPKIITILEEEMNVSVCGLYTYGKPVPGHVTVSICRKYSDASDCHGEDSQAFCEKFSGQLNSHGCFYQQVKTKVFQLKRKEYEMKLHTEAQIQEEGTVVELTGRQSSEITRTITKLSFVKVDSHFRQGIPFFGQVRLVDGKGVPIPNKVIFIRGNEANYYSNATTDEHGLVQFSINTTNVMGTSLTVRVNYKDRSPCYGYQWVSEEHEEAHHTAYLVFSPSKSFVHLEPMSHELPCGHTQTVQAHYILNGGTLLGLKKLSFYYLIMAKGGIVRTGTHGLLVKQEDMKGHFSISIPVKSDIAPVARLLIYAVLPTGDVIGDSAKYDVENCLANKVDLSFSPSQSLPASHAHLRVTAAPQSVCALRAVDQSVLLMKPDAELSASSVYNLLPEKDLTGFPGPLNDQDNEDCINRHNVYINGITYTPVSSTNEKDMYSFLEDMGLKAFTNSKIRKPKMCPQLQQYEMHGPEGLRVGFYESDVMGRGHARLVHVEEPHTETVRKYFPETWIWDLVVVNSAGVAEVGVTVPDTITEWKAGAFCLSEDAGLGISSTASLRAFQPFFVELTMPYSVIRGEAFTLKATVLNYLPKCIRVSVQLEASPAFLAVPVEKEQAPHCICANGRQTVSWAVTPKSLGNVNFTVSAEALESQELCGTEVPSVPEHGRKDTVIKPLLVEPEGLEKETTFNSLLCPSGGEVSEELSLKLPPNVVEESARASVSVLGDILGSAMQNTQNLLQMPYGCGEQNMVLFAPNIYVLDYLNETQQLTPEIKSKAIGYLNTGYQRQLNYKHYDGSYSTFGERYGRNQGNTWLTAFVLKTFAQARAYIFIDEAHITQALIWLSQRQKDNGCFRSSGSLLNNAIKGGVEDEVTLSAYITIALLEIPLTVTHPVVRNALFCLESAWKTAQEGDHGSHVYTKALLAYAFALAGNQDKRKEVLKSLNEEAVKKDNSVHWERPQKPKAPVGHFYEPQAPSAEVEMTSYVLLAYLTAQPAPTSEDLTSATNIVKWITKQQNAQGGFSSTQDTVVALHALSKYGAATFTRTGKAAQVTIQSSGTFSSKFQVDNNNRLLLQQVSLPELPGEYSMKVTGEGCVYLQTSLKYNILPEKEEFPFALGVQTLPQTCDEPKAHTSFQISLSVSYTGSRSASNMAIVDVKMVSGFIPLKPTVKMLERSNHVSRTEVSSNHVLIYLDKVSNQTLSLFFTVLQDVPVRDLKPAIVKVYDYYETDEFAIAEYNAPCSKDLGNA
Nature of the assay: Inhibition of alpha-2 macroglobulin (unknown origin).

Assay [2] is described as follows: Inhibition of glutathione S-transferase (unknown origin). Set-up: species or system Homo sapiens.

Molecules are shown by their SMILES.

Broadly, the IC50 is the concentration at which inhibition is half-maximal. High values mean lower potency, low ones higher potency. In turn, `CC(C)CC[C@]1(O)[C@@]2(O)C(=O)O[C@]13C(=Cc1cccc(O)c1[C@@H]3O)C(=O)[C@@H]2C` had an IC50 in assay [1] of 257 µM.

On to `CC(C)CC[C@@]1(O)c2cc3c(O)cccc3cc2C(=O)[C@H](C)[C@]1(O)C(=O)O`, for which the results for the IC50 in assay [1] and in assay [2] were 94 µM and 26.9 µM, respectively.
